Measured values reported in patent US20060167109A1, “Methods of reducing rhinovirus contagion and related compositions” (priority 2002, published 2006).

Tests used:
Assay in all cases: HRV cytopathic effect assay
Format in all cases: cell-based
Settings in all cases: Human rhinovirus sp.
HRV serotype 10 = system: HRV serotype 10
Experimental: (§1) For sensitivity testing to pleconaril, the appropriate cells were seeded into 96 well plates at a concentration of 4×10^4/well. After an overnight incubation at 37° C., the medium was removed and the cells were infected with 150 μL of a dilution of virus previously titrated to give ≧85% lysis of the monolayer after 3 days of incubation. The plates were incubated for 1 hour at the appropriate temperature and then overlaid with 50 μL of medium containing serial 2-fold dilutions of pleconaril in 2% DMSO. The final DMSO concentration in the assay was always 0.5%. No virus and no pleconaril controls were included on each plate. All drug concentrations were run in quadruplicate. The plates were then incubated for 3 days at the appropriate temperature followed by processing as described above.

HRV serotype 43 = system: HRV serotype 43
Experimental: as §1

HRV serotype 40 = system: HRV serotype 40
Experimental: as §1

HRV serotype 29 = system: HRV serotype 29
Experimental: as §1

HRV serotype 97 = system: HRV serotype 97
Experimental: as §1

HRV serotype 58 = system: HRV serotype 58
Experimental: as §1

HRV serotype 100 = system: HRV serotype 100
Experimental: as §1

HRV serotype 81 = system: HRV serotype 81
Experimental: as §1

HRV serotype 71 = system: HRV serotype 71
Experimental: as §1

HRV serotype 20 = system: HRV serotype 20
Experimental: as §1

HRV serotype 85 = system: HRV serotype 85
Experimental: as §1

HRV serotype 88 = system: HRV serotype 88
Experimental: as §1

HRV serotype 59 = system: HRV serotype 59
Experimental: as §1

HRV serotype 53 = system: HRV serotype 53
Experimental: as §1

HRV serotype 55 = system: HRV serotype 55
Experimental: as §1

HRV serotype 7 = system: HRV serotype 7
Experimental: as §1

HRV serotype 87 = system: HRV serotype 87
Experimental: as §1

HRV serotype 60 = system: HRV serotype 60
Experimental: as §1

HRV serotype 16 = system: HRV serotype 16
Experimental: as §1

HRV serotype 75 = system: HRV serotype 75
Experimental: as §1

HRV serotype 24 = system: HRV serotype 24
Experimental: as §1

HRV serotype 86 = system: HRV serotype 86
Experimental: as §1

HRV serotype 14 = system: HRV serotype 14
Experimental: as §1

HRV serotype 12 = system: HRV serotype 12
Experimental: as §1

HRV serotype 47 = system: HRV serotype 47
Experimental: as §1

HRV serotype 68 = system: HRV serotype 68
Experimental: as §1

HRV serotype 80 = system: HRV serotype 80
Experimental: as §1

HRV serotype 89 = system: HRV serotype 89
Experimental: as §1

HRV serotype 46 = system: HRV serotype 46
Experimental: as §1

HRV serotype 83 = system: HRV serotype 83
Experimental: as §1

HRV serotype 11 = system: HRV serotype 11
Experimental: as §1

HRV serotype 35 = system: HRV serotype 35
Experimental: as §1

HRV serotype 26 = system: HRV serotype 26
Experimental: as §1

HRV serotype 91 = system: HRV serotype 91
Experimental: as §1

HRV serotype 69 = system: HRV serotype 69
Experimental: as §1

HRV serotype 18 = system: HRV serotype 18
Experimental: as §1

HRV serotype 30 = system: HRV serotype 30
Experimental: as §1

HRV serotype 34 = system: HRV serotype 34
Experimental: as §1

HRV serotype 28 = system: HRV serotype 28
Experimental: as §1

HRV serotype 56 = system: HRV serotype 56
Experimental: as §1

HRV serotype 49 = system: HRV serotype 49
Experimental: as §1

HRV serotype 42 = system: HRV serotype 42
Experimental: as §1

HRV serotype 62 = system: HRV serotype 62
Experimental: as §1

HRV serotype 74 = system: HRV serotype 74
Experimental: as §1

HRV serotype 72 = system: HRV serotype 72
Experimental: as §1

Cc1cc(CCCOc2c(C)cc(-c3noc(C(F)(F)F)n3)cc2C)on1 [pleconaril, 3-[3,5-dimethyl-4-[3-(3-methyl-5-isoxazolyl)propoxy]phenyl]-5-(trifluoromethyl)-1,2,4-oxadiazole]
IC50 (HRV serotype 10): 130 ± 50 nM | IC50 (HRV serotype 43): 230 ± 110 nM | IC50 (HRV serotype 40): 70 ± 30 nM | IC50 (HRV serotype 29): 270 ± 70 nM | IC50 (HRV serotype 97): > 12500 nM | IC50 (HRV serotype 58): 40 ± 30 nM | IC50 (HRV serotype 100): 30 ± 10 nM | IC50 (HRV serotype 81): 300 ± 70 nM | IC50 (HRV serotype 71): 20 ± 10 nM | IC50 (HRV serotype 20): 60 nM | IC50 (HRV serotype 85): 50 ± 20 nM | IC50 (HRV serotype 88): 100 ± 40 nM | IC50 (HRV serotype 59): 780 ± 340 nM | IC50 (HRV serotype 53): 280 ± 60 nM | IC50 (HRV serotype 55): 20 ± 20 nM | IC50 (HRV serotype 7): 50 ± 10 nM | IC50 (HRV serotype 87): > 12500 nM | IC50 (HRV serotype 60): 480 ± 140 nM | IC50 (HRV serotype 16): 570 ± 190 nM | IC50 (HRV serotype 75): 110 ± 60 nM | IC50 (HRV serotype 24): 210 ± 20 nM | IC50 (HRV serotype 86): 130 ± 100 nM | IC50 (HRV serotype 14; HRV14, Table 2, mean of at least two independent determinations): 160 ± 90 nM | IC50 (HRV serotype 14; serotype 14): 160 ± 90 nM | IC50 (HRV serotype 12): 390 ± 120 nM | IC50 (HRV serotype 47): 10 nM | IC50 (HRV serotype 68): 30 ± 20 nM | IC50 (HRV serotype 80): 170 ± 30 nM | IC50 (HRV serotype 89; HRV89, Table 2, mean of at least two independent determinations): 50 ± 10 nM | IC50 (HRV serotype 89; serotype 89): 50 ± 10 nM | IC50 (HRV serotype 46): 160 ± 50 nM | IC50 (HRV serotype 83): 20 ± 10 nM | IC50 (HRV serotype 11): 150 ± 40 nM | IC50 (HRV serotype 35): 40 ± 10 nM | IC50 (HRV serotype 26): 1600 ± 600 nM | IC50 (HRV serotype 91): 730 ± 390 nM | IC50 (HRV serotype 69): 6770 ± 3140 nM | IC50 (HRV serotype 18): 240 ± 100 nM | IC50 (HRV serotype 30): 230 ± 80 nM | IC50 (HRV serotype 34): 90 ± 20 nM | IC50 (HRV serotype 28): 200 ± 70 nM | IC50 (HRV serotype 56): 110 ± 60 nM | IC50 (HRV serotype 49): 170 ± 60 nM | IC50 (HRV serotype 42): > 12500 nM | IC50 (HRV serotype 62): 160 ± 60 nM | IC50 (HRV serotype 74): 30 nM | IC50 (HRV serotype 72): 940 ± 300 nM
